One may read the cell viability as a per cent measure of how many cells are alive, often set against a control. A low value points to more harm to the cells.

The values that follow come from US8314255B2, “Use of phthalimide and/or sulphonamide derivatives in the treatment of diseases which require reducing the TNF- α levels and an exogenous source of nitric oxide, phthalimide derivatives, sulphonamide derivatives, and a method for obtaining a sulphonamide derivative” (priority 2007, dated 2012).

Each structure is given as a SMILES string. “Also recorded” adds a separate entry of the source. Marks after values point to notes of the source that are not given here.

In series [1] the test system is leukocyte infiltration, peritonitis induced by thioglycolate. Kind of series: Peritonitis assay induced by 3% thioglycolate. The note with it: 300 μMol/Kg orally, mouse, 3% thioglycolate i.p., 4 h. It is filed as in vivo. As to the method: In a second assay, the number of total leukocytes (10^6/mL) was evaluated in order to evaluate the ability to inhibit their infiltration in the inflammatory process.
The mice were treated with the substances being analyzed or carrier and after 1 h of oral administration, they were simultaneously subjected to the peritonitis assay, by administering intraperitoneally 1 ml of a 3% thioglycolate solution. 4 h after the administration of thioglycolate, the peritoneal cavity was washed with 3 ml of a HANKS solution (Balanced salt solution, free of Ca^2+ and Mg^2+). Next, the peritoneal wash was analyzed and the total counting of white blood cells was made in a Newbauer's chamber under an optical microscope with a 40× objective.

Series [2] deals with mouse ear edema induced by capsaicin. As to the kind of experiment: Mouse ear edema assay induced by capsaicin. It is filed as in vivo. The note with it: 300 μmol/Kg i.p., capsaicin 250 μg/ear 1 hour after administration. As to the method: This assay is characterized by an acute inflammatory response of the ear, with development of edema, and it was performed in order to evaluate the anti-inflammatory activity of the synthesized compounds.
In this assay, indomethacin was used as a control at 100 μmol/Kg, and the phthalimide derivatives were firstly evaluated at 300 μmol/Kg via i.p. From table 4, it can be observed that compounds IC and IE show an ear edema inhibition percentage higher than 64%. […] The other compounds, however, show a similar activity when compared to indomethacin (FIG. 01), taking into consideration the standard error.
This assay was performed using Swiss mice from both genders weighing from 18 to 30 grams. The animals were fasted for 8 hours with free access to water. This assay consists in locally administering (right ear) 20 μl of a capsaicin solution (250 μg/ear) diluted in acetone, 1 hour after the i.p. administration (diluted in 0.5% gum arabic). The left ear (control) received the carrier in which capsaicin was diluted (acetone) and the right ear received capsaicin. This assay is characterized by an acute inflammatory response of the ear, with development of edema. The animals were sacrificed and their ears were weighted to obtain the inflammation index. A biopsy (8 mm in diameter) of the ear was carried out. Next, the weights of the inflamed ears were compared against the weights of the contralateral ear (control ear) which were not treated with the phlogistic agent. The edema inhibition percentage was calculated by subtracting the ear treated with the carrier by that treated with capsaicin from each group of animals treated with the test substances, and then it was divided by the difference between the groups of the irritating agents and the control groups.

For another series, the system named is K562 cells. Kind of series: Cell viability in K562 culture (trypan blue). Format: cell-based, human. As to the method:
(§1) The human leukemia cell line K562 ATCC (American Type Culture Collection), Philadelphia, Pa., USA was used. The cells were cultured in DMEM median (Dulbecco's Modified Eagle Medium, Invitrogen, USA) containing 10% of fetal bovine serum and glutamine. The cells were maintained at 37° C. under a 5% CO2 atmosphere. For the experiments, the cells were incubated at a density of 1×10^5 cells/mL. In order to carry out the culture with hemin (30 uM), it was added 72 hours before the beginning of the experiment with the desired compound.
(§2) The 0-hour time consisted in removing non-treated K562 cells. From this point, the respective compounds were added at the desired concentrations (5, 30, 60 and 100 uM), the cells were then maintained for […] under culture, without a new addition of any compound or substitution of the culture medium. Cell collections were performed at the following times: 0, 24, 48, 72 and 96 hours. The morphology of the cells was analyzed at these points through cytospin slides stained with Leishman and the cell viability was performed by staining with trypan blue in a Neuberger's chamber.

Another series deals with gamma-globin mRNA. As to the kind of experiment: Gamma-globin gene expression in K562 cell culture by Real Time PCR. It is filed as cell-based, human. The note with it: for gene expression of gamma-globin: K562 erythroleukemic cells, Real Time PCR, 5-100 μM, 24-96 h. As to the method: as §1, §2
The extraction method with TRIzol reagent (Gibco-BRL, Gaithersburg, Md.) according to the manufacturer's instructions was used in order to obtain the RNA from K562. The sample containing K562 and TRIzol was incubated for 5 minutes at room temperature in order to achieve complete dissociation of the nucleoproteic complexes, 200 μL of chloroform (CHCl3) was added and thoroughly stirred, and incubation was again performed by 5 minutes at room temperature. After centrifugation for 15 minutes at 19,000 g at a temperature of 4° C., the supernatant was obtained and stored in another tube, proceeding immediately to the step of precipitation with 500 μL of cold isopropanol. After homogenization, a new incubation was carried out for 10 minutes at room temperature, followed by centrifugation for 10 minutes at 19,000 g at 4° C. The supernatant was disposed of and 800 μL of 70% cold ethanol was added to the precipitate, with a new centrifugation being carried out for 5 minutes at 14,000 at 4° C. […]
The RNA samples obtained were subjected to the complementary DNA (cDNA) synthesis using the Superscript III RTTM kit (Invitrogen, Life Technologies). After reading in a spectrophotometer (Gene Quant-Pharmacia, USA) and quantification, 3 μg of RNA were treated with the enzyme DNase I (Invitrogen, Life Technologies), for removal of contaminant DNA. […]
After reading in a spectrophotometer (Gene Quant-Pharmacia, USA) and quantification, cDNA aliquots were used as template in quantitative real-time PCR reactions. The technique consists in optically monitoring the fluorescence emitted during the PCR reaction, by means of the binding of a specific probe or dye to the newly synthesized strand. […]
A general note: In qPCR the cycle at which signal appears reflects the starting amount.

For `O=C1c2ccccc2C(=O)N1CO[N+](=O)[O-]` [Compound IA, (1,3-dioxo-1,3-dihydro-2H-isoindol-2-yl)methyl nitrate], in series [1], the “Cell Number avg (×106), total leukocytes” value was 4.9 ×106 and the “Inhibition % (leukocyte infiltrate)” value came out at 12.5%. For the same compound, the “Average inhibition % (ear edema)” value in series [2] turned out to be 53.75%.

With `O=C1c2ccccc2C(=O)N1c1ccc(CCO[N+](=O)[O-])cc1` [Compound IE, 2-[4-(1,3-dioxo-1,3-dihydro-2H-isoindol-2-yl)phenyl]ethyl nitrate], the cell viability result in the series with K562 cells (K562 assays with and without hemin, at the concentrations used) is given as “higher than 90%”. In addition, in series [1], the “Cell Number avg (×106), total leukocytes” value is recorded as 4.13 ×106 and the “Inhibition % (leukocyte infiltrate)” value is 26.25%. The “gene expression of gamma-globin in the presence of hemin versus absence of hemin” value with gamma-globin mRNA (K562 cells, hemin 30 uM, compared to the control) was “did not show a significantly higher activity”. In the series with gamma-globin mRNA, the “gene expression of gamma-globin” value is recorded as “increasing the gene expression of gamma-globin”.

Turning to `Nc1ccc(S(=O)(=O)NO)cc1` [Compound IIA, 4-amino-N-hydroxybenzenesulphonamide], in the series on K562 cells (at 0 h, pattern maintained during the assay), the cell viability is on record as 97%. For the same compound, in series [1], the “Cell Number avg (×106), total leukocytes” value is on record as 4.0 ×106 and the “Inhibition % (leukocyte infiltrate)” value is listed as 28.57%. Moreover, the “concentration showing activity on gamma-globin expression” value in the series on gamma-globin mRNA (K562 cells, 48 hours) came out at 5 µM. Further, the “gene expression of gamma-globin” value with gamma-globin mRNA is given as “higher activity than the control; also recorded: higher than the increase provided by compound IE”. In addition, in series [2], the “Average inhibition % (ear edema)” value came out at 49.24%.

Take `O=C1c2ccccc2C(=O)N1CCO[N+](=O)[O-]` [IB, 2-(1,3-dioxo-1,3-dihydro-2H-isoindol-2-yl)ethyl nitrate]: in series [1], the “Cell Number avg (×106), total leukocytes” value is recorded as 2.73 ×106 and the “Inhibition % (leukocyte infiltrate)” value is reported as 51.25* %. Further, the “Average inhibition % (ear edema)” value in series [2] is reported as 46.55%.

In the case of `O=C1c2ccccc2C(=O)N1c1ccc(CO[N+](=O)[O-])cc1` [ID, 4-(1,3-dioxo-1,3-dihydro-2H-isoindol-2-yl)benzyl nitrate], in series [1], the “Cell Number avg (×106), total leukocytes” value is 3.8 ×106 and the “Inhibition % (leukocyte infiltrate)” value was 32.14%. The “Average inhibition % (ear edema)” value in series [2] was 37.18%.
